Laboratory results taken from ChEMBL document CHEMBL5729731, “Imidazole-containing inhibitors of ALK2 kinase” (2023).

Target: T1, Activin receptor type-1 (Homo sapiens, UniProt Q04771)
T1 sequence (Q04771 whole entry): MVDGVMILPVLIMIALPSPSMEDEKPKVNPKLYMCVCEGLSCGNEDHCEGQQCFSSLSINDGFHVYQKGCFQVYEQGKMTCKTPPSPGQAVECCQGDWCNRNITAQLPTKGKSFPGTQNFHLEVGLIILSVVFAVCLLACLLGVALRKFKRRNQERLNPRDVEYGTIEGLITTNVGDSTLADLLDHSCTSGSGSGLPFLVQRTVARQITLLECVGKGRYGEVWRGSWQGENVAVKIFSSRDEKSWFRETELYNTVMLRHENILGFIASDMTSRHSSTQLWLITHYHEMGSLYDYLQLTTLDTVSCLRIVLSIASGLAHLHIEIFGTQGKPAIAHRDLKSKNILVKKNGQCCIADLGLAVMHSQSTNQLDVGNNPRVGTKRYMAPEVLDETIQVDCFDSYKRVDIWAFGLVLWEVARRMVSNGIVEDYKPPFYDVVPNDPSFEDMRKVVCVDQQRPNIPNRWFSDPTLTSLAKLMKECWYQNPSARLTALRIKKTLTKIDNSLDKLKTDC
Test: Biochemical assay: Biochemical assays to measure the inhibitory effects of the compounds were performed by ThermoFisher Scientific (Life Technologies). ALK2 inhibition was tested using LanthaScreen Eu Kinase Binding Assay screening protocol.

An IC50 of less than 100 nM was found for COc1cc(-n2cnc(Nc3nc(-c4cccc(CO)c4)nc4sc(CO)cc34)c2)cc(OC)c1OC in this work.
